Results reported in ChEMBL document CHEMBL2046321, “Molecular Docking and in Vitro Antileishmanial Evaluation of Chromene-2-thione Analogues” (ACS Med Chem Lett, 2012).

Legend:
[1] = Cytotoxicity against human PBMC assessed as cell killing at IC50 after 48 hrs by MTT assay; conditions: PBMC (peripheral blood mononuclear cells)
Leishmania donovani [2] = test: Antileishmanial activity against promastigotes of Leishmania donovani LEM-138 (MHOM/IN/00/DEVI) by MTT assay; assay type: functional, organism-based
Leishmania donovani [3] = test: Ratio of IC50 for promastigotes of Leishmania donovani LEM-138 (MHOM/IN/00/DEVI) to IC50 for axenic amastigotes of Leishmania donovani LEM-138 (MHOM/IN/00/DEVI); assay type: functional
Leishmania donovani [4] = test: Antileishmanial activity against axenic amastigotes of Leishmania donovani LEM-138 (MHOM/IN/00/DEVI) by MTT assay; assay type: functional, organism-based
Leishmania donovani [5] = test: Antileishmanial activity against amastigotes of Leishmania donovani LEM-138 (MHOM/IN/00/DEVI) infected in mouse J774A.1 cells after 72 hrs by Giemsa dye staining; assay type: functional, organism-based; conditions: J774.A1, 72 h
[6] = Cytotoxicity against human PBMC assessed as cell killing at 2 times IC50 after 48 hrs by MTT assay; conditions: PBMC (peripheral blood mononuclear cells)

| SMILES | cell killing at 48 h [1] | IC50 (Leishmania donovani [2]) | Ratio IC50 (Leishmania donovani [3]) | IC50 (Leishmania donovani [4]) | IC50 (Leishmania donovani [5]) | cell killing at 48 h [6] |
| --- | --- | --- | --- | --- | --- | --- |
| COc1cccc2cc(C(=O)c3ccc(Cl)cc3)c(=S)oc12 | 0.46% | 48 µM | 0.66 | 73 µM | 24 µM | 20.2% |
| COc1ccc(C(=O)c2cc3cccc(OC)c3oc2=S)cc1 | 16.6% | 1400 µM | 2.8 | 502 µM |  | 14.8% |
| COc1ccc(C(=O)c2cc3cc(Br)ccc3oc2=S)cc1 | 32.9% | 450 µM | 2.3 | 198 µM | 17 µM | 40.5% |
| O=C(c1ccco1)c1cc2c(ccc3ccccc32)oc1=S | 12% | 2770 µM | 75 | 37 µM |  | 27.8% |
| COc1ccc(C(=O)c2cc3c(ccc4ccccc43)oc2=S)cc1 | 15.1% | 335 µM | 1.5 | 221 µM |  | 27% |
| COc1cccc2cc(C(=O)c3ccc(C)cc3)c(=S)oc12 | 9.4% | 744 µM | 1.7 | 446 µM |  | 33.1% |
| COc1cccc2cc(C(=O)c3cccs3)c(=S)oc12 | 11.1% | 4300 µM | 4.6 | 927 µM |  | 19.5% |
| COc1cccc2cc(C(=O)c3ccco3)c(=S)oc12 | 12.3% | 1220 µM | 18.8 | 65 µM | 26 µM | 26% |
| C[C@@H]1[C@H](O)[C@@H](C)/C=C/C=C/C=C/C=C/C=C/C=C/C=C/[C@H](O[C@@H]2O[C@H](C)[C@@H](O)[C@H](N)[C@@H]2O)C[C@@H]2O[C@](O)(C[C@@H](O)C[C@@H](O)[C@H](O)CC[C@@H](O)C[C@@H](O)CC(=O)O[C@H]1C)C[C@H](O)[C@H]2C(=O)O [AMPHOTERICIN B] | 16% | 0.465 µM |  | 0.061 µM |  | 24.4% |
| O=C(c1cccs1)c1cc2cc(Br)ccc2oc1=S | 10.9% | 4630 µM | 55.8 | 83 µM |  | 6.66% |
| O=C(c1ccco1)c1cc2cc(Br)ccc2oc1=S | 10.7% | 1030 µM | 2 | 524 µM |  | 17.6% |
| O=C(c1cccs1)c1cc2c(ccc3ccccc32)oc1=S | 28.8% | 97 µM | 2.7 | 36 µM | 22 µM | 24.6% |
